Measured values as given in patent publication US10392363B2, “Methods for treating protozoan infections” (Neoculi Pty Ltd., priority 2014, dated 2019).

tested on: not listed separately; assay: Cell toxicity assay (WST-1); type: cell-based, mouse; details: mouse, RAW 264.7 macrophages, RAW 264.7, 24 hours, read-out: GI50 macrophage
Experimental: Cell toxicity assays. Mouse macrophages (RAW 264.7) were grown in RPM11640 media supplemented with L-glutamine and 10% foetal calf serum. Cells were trypsanised when 80% confluent and subcultured every 3-4 days. For cytotoxicity assays cells were diluted to a final cell concentration of 2×10^4 cells/ml and 198 μl added to each well of a 96 well plate. Cells were incubated in a humidified incubator for 2 hours at 37° C. 5% CO2 before the addition of NCL compounds (2 μl/well, previously diluted in DMSO). Campothecin, triton X and DMSO only were used as controls. Cells were exposed to the compounds for 24 hours. The metabolic activity of the cells was determined using the WST-1 assay system (Roche Life Science). The supernatant was removed, 100 μl of PBS with 10% WST-1 was added to each well and incubated for 1 hr before reading absorbance at 450 nm. The selectivity index of the compounds was determined by dividing the IC50 of macrophages by the IC50 against parasites. IC50 was determined via graphpad prism software.

SMILES	GI50 at 24 h
C/C(=N\NC(=N)N/N=C(\C)c1ccc(Cl)cc1)c1ccc(Cl)cc1.Cl [NCL062]	7.15 ± 1.27 µM
CN(C)c1ccc(/C=N/NC(=N)N/N=C/c2ccc(N(C)C)cc2)cc1.Cl [NCL113]	12.9 ± 3.49 µM

tested on: T. brucei procyclic stage; assay: T. brucei screening (alamar blue); type: cell-based, Trypanosoma brucei; details: 10 μM, 48 hrs
Experimental: T. brucei screening. Procyclic promastigotes from exponentially growing cells maintained SDM-79 medium were used in all assays. Compounds were initially screened at 10 μM for activity. Compounds were diluted in culture media to a concentration of 20 μM and added to a 96 well plate, after addition of promastigotes (final concentration 4×10^5 cells/ml) compound concentration was 10 μM. Cells were incubated for 48 hrs at 27° C. before the addition of alamar blue and fluorescence measurement as described above. […] Compounds were serially diluted in thirds in culture media resulting in final concentrations ranging from 0.004-10 μM. Promastigotes were added at a final concentration of 4×10^5 cells/ml. Cells were incubated at 27° C. for 48 hours before addition of alamar blue. In addition promastigotes, at a concentration of 8×10^5 were exposed to NCL026 for 1.5 hours before removal of the drug via centrifugation at 5000 rpm for 7 minutes and resuspension of cells in culture media. Cells were incubated for 96 hours at 27° C. and observed daily for metabolic activity (alamar blue assay) and morphological changes. A control culture was exposed to DMSO instead of NCL026.

SMILES	reduction of metabolic activity / inhibitory effect on T. brucei
C/C(=N\NC(=N)N/N=C(\C)c1ccc(Cl)cc1)c1ccc(Cl)cc1.Cl [NCL062]	greatest inhibitory effect

same assay, conditions: GI50 of macrophages divided by IC50 of parasites

SMILES	T. brucei SI
C/C(=N\NC(=N)N/N=C(\C)c1ccc(Cl)cc1)c1ccc(Cl)cc1.Cl [NCL062]	1.75

same assay, conditions: Trypanosoma brucei, 48 h

IC50	SMILES
4.04 ± 0.83 µM	C/C(=N\NC(=N)N/N=C(\C)c1ccc(Cl)cc1)c1ccc(Cl)cc1.Cl [NCL062]

tested on: Trypanosoma cruzi (Tulahuen trypomastigotes expressing β-galactosidase, in L6 cells); assay: In vitro T. cruzi assay for determination of IC50; type: cell-based; details: 96 h incubation
Experimental: The T. cruzi assay uses Tulahuen trypomastigotes expressing the β-galactosidase gene. The parasites were maintained in vitro by serial passage in L6 cells. […] Extracellular trypomastigotes were then removed and NCL compounds were added in seven-point serial dilutions performed in triplicate. Benznidazole (Epichem Pty Ltd.) was included as a control. […] After 4-6 h, a colour change following catabolisation of the reagent by viable T. cruzi was observed and absorbance was read at 530 nm using a Dynex microplate reader. […] For each compound, % inhibition values were used to generate a standard curve from which the IC50 was calculated. Each assay was performed at least twice, and the average was used.

SMILES	IC50
N=C(NN=Cc1ccccc1C(F)(F)F)NN=Cc1ccccc1C(F)(F)F [NCL036]	8.3 µM
CC(=NNC(=N)NN=Cc1ccc(C(F)(F)F)cc1)c1ccc(C(F)(F)F)cc1 [NCL075]	15 µM
N=C(NN=Cc1ccccc1Cl)NN=Cc1ccccc1Cl [NCL020]	24 µM
N#Cc1ccccc1C=NNC(=N)NN=Cc1ccccc1C#N [NCL025]	20 µM
N=C(NN=Cc1cccc(C(F)(F)F)c1)NN=Cc1cccc(C(F)(F)F)c1 [NCL037]	16 µM
N#Cc1ccc(C=NNC(=N)NN=Cc2ccc(Cl)cc2)cc1 [NCL087]	17 µM
Cc1ccc(C=NNC(=N)NN=Cc2ccc(Cl)cc2)cc1 [NCL076]	19 µM
N#Cc1ccccc1C=NNC(=N)N [NCL032]	58 µM
N#Cc1ccccc1C=NNC(=N)NN=Cc1ccc(Cl)cc1 [NCL085]	20 µM
N=C(NN=Cc1ccc(Cl)cc1)NN=Cc1cccc(Cl)c1 [NCL083]	16 µM
COc1ccc(C=NNC(=N)NN=Cc2ccc(OC)cc2)cc1 [NCL027]	14 µM

same assay, conditions: Trypanosoma cruzi, TULAHUEN, L6; 96 h incubation

SMILES	IC50
N#Cc1cccc(/C=N/NC(=N)N/N=C/c2ccc(Cl)cc2)c1 [NCL086]	14 µM
Cc1ccc(/C=N/NC(=N)N/N=C/c2ccc(C)cc2)cc1 [NCL038]	16 µM
N=C(N)N/N=C/c1ccc(C(F)(F)F)cc1 [NCL041]	14 µM
N=C(N/N=C/c1cccc(F)c1)N/N=C/c1cccc(F)c1 [NCL023]	19 µM
N=C(N/N=C/c1ccc(Cl)cc1)N/N=C/c1ccccc1Cl [NCL082]	22 µM
N=C(N/N=C/c1ccc(F)cc1)N/N=C/c1ccc(Cl)cc1 [NCL079]	> 10 µM
N=C(N)N/N=C/c1ccc(Cl)cc1 [NCL030]	18 µM
C/C(=N\NC(=N)N/N=C(\C)c1ccc(C(C)(F)F)cc1)c1ccc(Cl)cc1 [NCL089]	3 µM
N=C(NN)N/N=C/c1ccc(Cl)cc1 [NCL072]	46 µM
N=C(N/N=C/c1ccc(Cl)cc1)N/N=C/c1ccc(Cl)cc1Cl [NCL074]	33 µM
COc1cccc(/C=N/NC(=N)N/N=C/c2cccc(OC)c2)c1 [NCL029]	19 µM
N=C(N)N/N=C/c1cccc(C(F)(F)F)c1 [NCL043]	16 µM
N=C(N/N=C/c1ccc(Cl)cc1)N/N=C/c1ccccc1F [NCL088]	19 µM
N=C(N/N=C/c1cccc(Cl)c1)N/N=C/c1cccc(Cl)c1 [NCL054]	19 µM
Cc1cccc(/C=N/NC(=N)N/N=C/c2cccc(C)c2)c1 [NCL040]	16 µM
O=C(N/N=C/c1cccc(C(F)(F)F)c1)N/N=C/c1cccc(C(F)(F)F)c1 [NCL011]	> 11 µM
Cc1ccccc1/C=N/NC(=N)N/N=C/c1ccccc1C [NCL039]	9.9 µM
N=C(N/N=C/c1ccc(Cl)cc1)N/N=C/c1ccc(C(F)(F)F)cc1F [NCL078]	> 10 µM
N=C(N/N=C/c1ccc(F)cc1)N/N=C/c1ccc(F)cc1 [NCL021]	16 µM
N=C(N/N=C/c1ccc(C(F)(F)F)cc1)N/N=C/c1ccc(C(F)(F)F)cc1 [NCL035]	20 µM
N=C(N/N=C/c1ccc(Cl)cc1)N/N=C/c1ccc(Cl)cc1F [NCL084]	22 µM
C/C(=N\NC(=N)N/N=C/c1ccc(Cl)cc1)c1ccc(C(F)(F)F)cc1 [NCL080]	7.8 µM
N=C(N)N/N=C/c1cccc(Cl)c1 [NCL052]	15 µM
C/C(=N\NC(=N)NN)c1ccc(C(F)(F)F)cc1 [NCL073]	24 µM
C/C(=N\NC(=N)N/N=C/c1ccc(Cl)cc1)c1ccc(Cl)cc1 [NCL081]	20 µM
Cc1ccc(/C=N/NC(=N)N)cc1 [NCL044]	39 µM

tested on: Leishmania donovani promastigotes; assay: L. donovani screening (Alamarblue); type: cell-based; details: GI50 of macrophages divided by IC50 of parasites
Experimental: L. donovani Screening. Procyclic promastigotes from exponentially growing cultures maintained in DME-L+ Bob additions were used for all assays. Compounds were initially screened for activity at 10 μM. Compounds were diluted in culture media to a […] in 96 well plates. Promastigotes were diluted to a density of ˜8×10^5 cells/ml then added to the assay plate resulting in a final cell density of 4×10^5 cells/ml. in 96 well plates. Cells were incubated for 96 hrs at 27° C. before the addition of Alamarblue (thermofisher). Fluorescence was read at excitation 530 nm and Emission 590 nm. […] Compounds were serially diluted in thirds, in a 96 well plate, in cell growth media so that concentrations ranged from 0.005 to 10 μM and promastigotes added to a final concentration of 1×10^6 cells/ml. Cells were incubated at 27° C. for 72 hours before the addition of alamar blue. Fluorescence was measured as above.

SMILES	L. donovani SI
CN(C)c1ccc(/C=N/NC(=N)N/N=C/c2ccc(N(C)C)cc2)cc1.Cl [NCL113]	highly selective

same assay, conditions: GI50 of macrophages divided by IC50 of parasites; listed as NCL 113

SMILES	L. donovani SI
CN(C)c1ccc(/C=N/NC(=N)N/N=C/c2ccc(N(C)C)cc2)cc1.Cl [NCL113]	14

same assay, conditions: Leishmania donovani, 72 h

IC50	SMILES
0.92 ± 0.06 µM	CN(C)c1ccc(/C=N/NC(=N)N/N=C/c2ccc(N(C)C)cc2)cc1.Cl [NCL113]

same assay, conditions: Leishmania donovani; 10 μM, 96 hrs; read-out: reduction of metabolic activity / inhibition of L. donovani

SMILES	inhibition at 10 µM
C/C(=N\NC(=N)N/N=C(\C)c1ccc(Cl)cc1)c1ccc(Cl)cc1.Cl [NCL062]	100%
N=C(N)N/N=C/c1ccc(C(F)(F)F)cc1 [NCL041]	100%

tested on: Giardia duodenalis trophozoites; assay: Resazurin reduction assay (Example 3); type: cell-based; details: 42 hours, then 6 hours with Alamarblue
Experimental: Giardia trophozoites were grown until confluent. The media was replaced with fresh media and they were cold shocked for 40 minutes (as above). Cells were diluted to a concentration of ˜500 000 cells/ml and 100 μl were added to each well of the assay plate (except media only control). The assay was incubated in an anaerobic environment (candle jar) for 42 hours at 37° C. […] After incubation the absorbance of each sample was read at 570 and 630 nm. The percent reduction of resazurin (Alamarblue™) was calculated and data was analysed with GraphPad Prism v6 software. Assay set-up: the assay was performed in 96 well plates in a total volume of 200 μl. 100 μl of NCL812 or NCL062 (concentration of 25.6 mg/ml in DMSO) or metronidazole (concentration 5 mg/ml in DMSO) stock was added to 9.9 ml of TYI-S-33 medium, then serially diluted 1:2 in the same medium. Cells were added as above.

SMILES	metabolic activity of the trophozoites (percentage of reduction of resazurin)
C/C(=N\NC(=N)N/N=C(\C)c1ccc(Cl)cc1)c1ccc(Cl)cc1.Cl [NCL062]	reduction in the metabolic activity
